{
  "source": "patent US5665769A",
  "about": "“Pharmaceutical composition for preventing and treating retinal diseases” (Senju Pharmaceuticals Co., Ltd., priority 1993, dated 1997)",
  "key": {"[1]": {"tested_on": "bovine retinal homogenate", "assay": "Ferrous chloride-induced peroxidation of bovine retinal homogenate in vitro, TBA value (Experiment 1 (A))", "assay_type": "biochemical", "settings": "10^-4 M", "method": "(A) In vitro experiment using a bovine retinal homogenate:\nEffects of 2-O-octadecylascorbic acid on the peroxidation induced by adding ferrous chloride to a bovine retinal homogenate were examined.\n(1) Retinae were removed from bovine eyeballs (1/2 eye). Physiological saline was added to the retinae to prepare bovine retinal homogenates.\n(2) Ferrous chloride (0.5 mM, dissolved in distilled water) was added to each of the retinal homogenates obtained in the above. Further, 2-O-octadecylascorbic acid and α-tocopherol were added to the resulting homogenates to final concentrations of the reaction mixtures of 10^-4 M, respectively. Further, distilled water was added to each of the homogenates to adjust a total volume to 1 ml. 2-O-octadecylascorbic acid and α-tocopherol were dissolved and diluted with ethanol. Thus, the final concentrations of ethanol in all of the reaction mixtures were adjusted to 1%. Then, the mixtures were subjected to reaction at 37° C. for 1 hour.\n(3) 0.35% thiobarbituric acid (hereinafter referred to as TBA) reagent (50% aqueous acetic acid solution)(1 ml) was added to the reaction mixtures or standard solutions of the retinal homogenates obtained in the above (2). The mixtures were subjected to reaction in boiling water at 100° C. for 1 hour. After water cooling, n-butanol (2 ml) was added, and the mixtures were shaken for 5 minutes and centrifuged at 3000 rpm for 10 minutes. Fluorescence intensities (excitation wave length: 515 nm, emission wave length: 553 nm) were determined for the n-butanol layer. Proteins were determined using Bio-Rad Protein Assay Kit (trade name)."}, "retina (rat)": {"tested_on": "retina (rat)", "assay": "Retinal peroxidation induced by intravitreous injection of ferrous sulfate in rats, retinal TBA values (Experiment 1 (B-1))", "assay_type": "in vivo, SD rats", "settings": "1.5% suspension, 30 mg/kg oral", "method": "(B) In vivo experiment in rats by intravitreous injection of ferrous ion:\n(B-1) Evaluation by retinal TBA values\nAntioxidative effects of oral administration of a suspension of 2-O-octadecylascorbic acid (30 mg/kg) on the retinal peroxidation induced by intravitreous injection of ferrous sulfate in rats were examined.\nSeven weeks old SD rats fasted from the previous day were divided into 2 groups. A 5% solution of gum arabic (control)(2 ml/kg) was administered orally to one group in 3 divided portions. A 1.5% suspension (2 ml/kg) of 2-O-octadecylascorbic acid (30 mg/kg) was administered orally to the other group in 3 divided portions. Two hours after the first administration, rats were anesthetized systemically with ketamine hydrochloride. A 5 mM solution (5 μl) of ferrous sulfate was injected intravitreously into each of the left eyes, and physiological saline (5 μl) was injected intravitreously into each of the right eyes. Each injection was carried out using a microsyringe. One and four hours after the injection, a suspension of 2-O-octadecylascorbic acid or a 5% solution of gum arabic were administered again. Two hours after the third administration (i.e. six hours after the injection of ferrous ion), the rats were sacrificed. The eyeballs were removed, retinal homogenates were prepared from the eyes, and the TBA values and protein were determined."}, "retinal rhodopsin": {"tested_on": "retinal rhodopsin", "assay": "Retinal light damage in rats, retinal rhodopsin amount (Experiment 2 (B-1))", "assay_type": "in vivo", "settings": "for Amount of retinal rhodopsin: mean ± S.D.", "method": "(B) In vivo experiment by light exposure in rats\n(B-1) Evaluation by retinal pathological tissues and rhodopsin amount\nRats were subjected to dark adaptation for 72 hours. Then the rats were irradiated continuously for 12 hours using a green fluorescent lamp (10 W, 490-580 nm), the illumination intensity of which was adjusted to 2000 to 2400 lux. A suspension of 1.5% or 5.0% 2-O-octadecylascorbic acid was orally administered three times a day (90, 300 mg/kg/day) on the day of light exposure, and once a day (30, 100 mg/kg/day) after that. To the control group was administered 5.0% gum arabic solution (control) according to the same schedule. After completion of the light exposure, the rats were reared in a dark room and sacrificed on the 5th day. The right eyes were marked with ink in the upper part and fixed with 2% paraformaldehyde and 2% glutaraldehyde solutions. Histopathological evaluation was made using a light microscope and the thickness of retinae (thickness of retinal entire layer and outer nuclear layer) was measured. The left eyes were stored under freezing conditions at -20° C. for rhodopsin determination after removal of the cornea, lens and vitreous body.\nRhodopsin was determined as follows. Firstly, the optic cup was sliced under a red lamp in a dark room, and retinal homogenates were prepared using 0.1M phosphate buffer (pH 7.2). After centrifugation at 15,000 rpm for 15 minutes, the precipitation was treated with 4% potassium alum solution. After washing, rhodopsin was extracted with 1% Emulphogen BC-720 (trade mark). The absorbance at 500 nm was measured using the centrifuged supernatant as the sample. The sample was bleached by light exposure with a yellow lamp for 5 minutes. The absorbance at 500 nm was measured again. The rhodopsin amount was calculated from the difference between the absorbances before and after the bleach (molar absorption coefficient: 42,000)."}, "retina (ERG in rats)": {"tested_on": "retina (ERG in rats)", "assay": "ERG in rats after light exposure for 20 hours (Experiment 2 (B-2), Method 2)", "assay_type": "in vivo", "settings": "5.0% suspension, light 20 hours", "method": "FIG. 5 is a graph showing the a-wave latency of ERG in rats after light exposure for 20 hours in Experiment 2 (B-2)(Method 2). The abscissa indicates time (day) after light exposure and the ordinate indicates a-wave latency (msec).\n(B-2) Evaluation of ERG determination\nRats were subjected to dark adaptation for 12 hours and irradiated with light for 20 successive hours under the same conditions as those of (Method-1). After subjecting them to dark adaptation for 2 hours, ERG was determined. A 5.0% 2-O-octadecylascorbic acid suspension or 5.0% gum arabic solution (control) was orally administered once a day (100 mg/kg/day) from 7 days before the light exposure and twice a day (200 mg/kg/day) only on the day of the light exposure."}},
  "data": [
    {"smiles": "CCCCCCCCCCCCCCCCCCOC1=C(O)[C@@H]([C@@H](O)CO)OC1=O", "note": "[2-O-octadecylascorbic acid]", "values": [
      {"measurement": "inhibitory effect on the peroxidation of the retinal homogenate", "setting": "[1]; compared with α-tocopherol", "result": "more excellent inhibitory effect on the peroxidation of the retinal homogenate than that in the presence of α-tocopherol"},
      {"measurement": "Retina: TBA value", "setting": "[1]; 0.5 mM ferrous chloride, 37° C., 1 hour, mean ± S.D., n=3, p < 0.001 vs control", "result": "0.61 ± 0.04 nM malondialdehyde/mg protein"},
      {"measurement": "Inhibitory ratio", "setting": "[1]; ferrous chloride control = 0, blank = 100, 60 min", "result": 94.9, "unit": "%"},
      {"measurement": "increase in the TBA value of the retina induced by intravitreous injection of ferrous ion", "setting": "retina (rat)", "result": "significantly inhibited the increase in the TBA value of the retina"},
      {"measurement": "Retina: TBA value, left eye", "setting": "retina (rat); left eye (ferrous sulfate injected), mean ± S.D., n=6, p < 0.01 vs control", "result": "0.47 ± 0.11 nM malondialdehyde/mg protein"},
      {"measurement": "Retina: TBA value, right eye", "setting": "retina (rat); right eye (physiological saline injected), mean ± S.D., n=6", "result": "0.36 ± 0.06 nM malondialdehyde/mg protein"},
      {"measurement": "Amount of retinal rhodopsin", "setting": "retinal rhodopsin; 1.5% suspension, n=5", "result": "0.51 ± 0.20", "unit": "nM/eye"},
      {"measurement": "Amount of retinal rhodopsin", "setting": "retinal rhodopsin; 5.0% suspension, n=3", "result": "0.69 ± 0.14", "unit": "nM/eye"},
      {"measurement": "decrease of the amount of rhodopsin by light exposure (in words)", "setting": "retinal rhodopsin; suspension administered groups", "result": "the tendency to inhibit the decrease of the amount of rhodopsin by light exposure was observed"},
      {"measurement": "delay of the a-wave latency", "setting": "retina (ERG in rats); oral 100 mg/kg/day from 7 days before, 200 mg/kg/day on day of light exposure", "result": "significantly inhibited the delay of the a-wave latency"},
      {"measurement": "amplitude of a-wave and b-wave", "setting": "retina (ERG in rats); both groups", "result": "decreased in both groups"}
    ]}
  ]
}
